What was measured:
Conditions in all cases: 72 h
HepG2 [1] = assay: cell viability relative to DMSO; higher = less toxic
U2OS [2] = assay: as above
Calu-3 [3] = assay: as above
Caco-2 [4] = assay: as above
Vero E6 [5] = assay: as above
HepG2 [6] = assay: relative viability EC50 (midpoint between 100% and the lowest measured viability); higher = less toxic
U2OS [7] = assay: as above
Calu-3 [8] = assay: as above
Caco-2 [9] = assay: as above
Vero E6 [10] = assay: as above
HepG2 [11] = assay: drug sensitivity score (DSS) for viability; higher = more toxic; extreme values may be limits of the assay
U2OS [12] = assay: as above
Calu-3 [13] = assay: as above
Caco-2 [14] = assay: as above
Vero E6 [15] = assay: as above

SMILES	cell viability (HepG2 [1]; 1 nM) [%]	cell viability (HepG2 [1]; 10 nM) [%]	cell viability (HepG2 [1]; 100 nM) [%]	cell viability (HepG2 [1]; 1000 nM) [%]	cell viability (HepG2 [1]; 10000 nM) [%]	cell viability (U2OS [2]; 1 nM) [%]	cell viability (U2OS [2]; 10 nM) [%]	cell viability (U2OS [2]; 100 nM) [%]	cell viability (U2OS [2]; 1000 nM) [%]	cell viability (U2OS [2]; 10000 nM) [%]	cell viability (Calu-3 [3]; 1 nM) [%]	cell viability (Calu-3 [3]; 10 nM) [%]	cell viability (Calu-3 [3]; 100 nM) [%]	cell viability (Calu-3 [3]; 1000 nM) [%]	cell viability (Calu-3 [3]; 10000 nM) [%]	cell viability (Caco-2 [4]; 1 nM) [%]	cell viability (Caco-2 [4]; 10 nM) [%]	cell viability (Caco-2 [4]; 100 nM) [%]	cell viability (Caco-2 [4]; 1000 nM) [%]	cell viability (Caco-2 [4]; 10000 nM) [%]	cell viability (Vero E6 [5]; 1 nM) [%]	cell viability (Vero E6 [5]; 10 nM) [%]	cell viability (Vero E6 [5]; 100 nM) [%]	cell viability (Vero E6 [5]; 1000 nM) [%]	cell viability (Vero E6 [5]; 10000 nM) [%]	relative viability EC50 (HepG2 [6]) [µM]	relative viability EC50 (U2OS [7]) [µM]	relative viability EC50 (Calu-3 [8]) [µM]	relative viability EC50 (Caco-2 [9]) [µM]	relative viability EC50 (Vero E6 [10]) [µM]	drug sensitivity score (HepG2 [11])	drug sensitivity score (U2OS [12])	drug sensitivity score (Calu-3 [13])	drug sensitivity score (Caco-2 [14])	drug sensitivity score (Vero E6 [15])
CN1CCCC(n2nc(Cc3ccc(Cl)cc3)c3ccccc3c2=O)CC1 (stereo not given) [azelastine]	113	91.5	101	89.3	89.2	104	111	98.8	100	93.4	97.1	96.7	105	114	92.3	95.2	91.2	98.2	94.2	87	108	95	110	103	94.9	> 10	> 10	> 10	> 10	> 10	0.3	0	0	0	0
NC(CO)C(=O)NNCc1ccc(O)c(O)c1O (stereo not given) [benserazide]	80.5	97.4	104	85	94.5	96.8	101	93	99.8	94	88.9	89.8	95.7	96.2	92.2	95.7	99	81.6	97.8	87.9	115	99.8	106	97	106	> 10	> 10	> 10	> 10	> 10	0	0	0	0	0
CCOC(=O)c1ccc(N)cc1 [benzocaine]	98.6	94.9	98.1	95	96.5	99.3	95.4	99.9	99.6	95.5	94	96	105	105	98.7	96.4	84.7	101	97.9	97	103	102	95.7	102	110	> 10	> 10	> 10	> 10	> 10	0	0	0	0	0
CN(Cc1cc(Br)cc(Br)c1N)C1CCCCC1 [bromhexine]	99.2	108	107	97.9	108	98.9	105	96.3	99.5	98.2	92	90.7	95.1	90.9	95.4	96.2	109	100	97.9	94.6	110	97.9	106	102	103	> 10	> 10	> 10	> 10	> 10	0	0	0	0	0
Cc1ccc(Cl)c(OCC(O)CNC(C)(C)C)c1 (stereo not given) [bupranolol]	99.3	97.6	104	97.8	94.6	101	98.1	99.6	101	104	98.2	99.8	93.6	105	104	109	89	91.5	99.5	107	93.6	97.5	97.2	100	103	> 10	> 10	> 10	> 10	> 10	0	0	0	0	0
C[C@@H]1NC(=O)[C@@H](N)CNC(=O)[C@H](C2CCNC(=N)N2)NC(=O)/C(=C/NC(N)=O)NC(=O)[C@H](CNC(=O)CC(N)CCCN)NC1=O.N=C1NCC[C@H]([C@@H]2NC(=O)/C(=C/NC(N)=O)NC(=O)[C@H](CNC(=O)C[C@@H](N)CCCN)NC(=O)[C@H](CO)NC(=O)[C@@H](N)CNC2=O)N1 [capreomycin]	94.4	102	105	108	99.1	103	100	102	96	106	104	100	105	95.3	108	96.2	94.8	98	95	99.3	98.8	105	102	94.1	94.8	> 10	> 10	> 10	> 10	> 10	0	0	0	0	0
CO/N=C(\C(=O)N[C@@H]1C(=O)N2C(C(=O)[O-])=C(C[n+]3ccn4ncccc43)CS[C@H]12)c1nsc(N)n1 [cefozopran]	89.7	90	88.8	104	102	97	97.7	102	107	104	102	104	93.6	104	118	93.7	97.9	96.5	96.7	99	92.7	99.9	94	98.7	109	> 10	> 10	> 10	> 10	> 10	0	0	0	0	0
CCOP(=S)(OCC)Oc1nc(Cl)c(Cl)cc1Cl [chlorpyrifos]	93.3	100	90.3	96.3	93.7	92.3	102	94.9	94.8	99.4	89.7	93.6	90.1	97	96.2	100	102	97.5	103	107	102	90.2	109	106	94.2	> 10	> 10	> 10	> 10	> 10	0	0	0	0	0
NS(=O)(=O)c1cc(C2(O)NC(=O)c3ccccc32)ccc1Cl (stereo not given) [chlorthalidone]	97.5	106	97.7	107	99.6	98.4	97.4	97.3	96.8	102	96.7	92	107	86.6	97.4	107	84.5	96.8	98.6	99	97.4	102	98.8	103	97.3	> 10	> 10	> 10	> 10	> 10	0	0	0	0	0
Cc1cc(O)c2c(c1)C(=O)c1cccc(O)c1C2=O [chrysophanic-acid]	98.4	104	97.8	95.7	105	99.5	103	96.7	104	97.7	104	98.1	92.4	91.2	93	102	91.2	92	92.5	88.9	93.5	97.3	100	93.5	96.1	> 10	> 10	> 10	> 10	> 10	0	0	0	0.8	0
Nc1ncnc2c1ncn2[C@@H]1O[C@H](CO)C[C@H]1O [cordycepin]	95.3	98.9	104	97.4	114	95.7	99.3	95	105	110	94.6	98.6	86.1	92.5	101	93.9	99	95.2	97.5	103	96.6	97	96.2	98.1	103	> 10	> 10	> 10	> 10	> 10	0	0	0	0	0
COc1ccc(CCN2CCN(CCCc3ccccc3)CC2)cc1OC [cutamesine]	91.5	97.2	88.9	98.4	85	106	100	104	93.5	96.8	95.9	110	102	119	96.8	97.9	95.6	96	92.9	98	102	92.5	102	96.2	95.6	> 10	> 10	> 10	> 10	> 10	0	0	0	0	0
Cc1c(O)c(=O)ccn1C [deferiprone]	103	97.4	98.3	97.1	101	96.5	100	100	94.5	96.2	89.6	106	109	100	98.2	92.4	98.3	93.4	116	93.4	101	102	99.3	98.1	99.9	> 10	> 10	> 10	> 10	> 10	0	0	0	0	0
CN(C)[C@@H]1C(O)=C(C(N)=O)C(=O)[C@@]2(O)C(O)=C3C(=O)c4c(O)ccc(Cl)c4[C@@H](O)[C@H]3C[C@@H]12 [demeclocycline]	89.5	97.6	97.3	102	94.9	105	98	101	96.3	93.8	112	115	102	98.9	93.4	99.9	95.9	101	95.5	96.3	98.1	103	110	99.6	91	> 10	> 10	> 10	> 10	> 10	0	0	0	0	0

— the supplement of paper PMC13380429
